From PubChem BioAssay AID1895 (NMMLSC, 2009)
Calls of active or inactive are those of the source. No rule for the calls is given here.

Molecular target: MEK5 PB1 domain binding to MEKK2 (MAP3K2) mutant PB1, human
Assay: inhibitors of MEK5 binding to mutant MEKK2, dose response, biochemical, bead multiplex flow cytometry (AID 1895)
Details: Bead-based multiplex flow cytometry

Row | EC50 | Ki (measured here: Ki for PB1 binding) | Compound
1 | > 30 µM (inactive) |  | O=C1c2ccccc2-c2onc3ccc(NCCCn4ccnc4)c1c23
2 | > 30 µM (inactive) |  | O=C(Nc1ccc(Cl)cn1)c1ccc2c(Cl)c3c(nc2c1)CCC3
3 | > 30 µM (inactive) |  | CN(C)CCCNc1cc(C(C)(C)C)nc2c(-c3ccc(Cl)cc3)cnn12
4 | > 30 µM (inactive) |  | CCOc1ccc(C2=C/C(=C/c3cccnc3)C(=O)O2)cc1
5 | > 30 µM (inactive) |  | COc1ccc2nc(C)cc(N/N=C/c3cccc(OC)c3O)c2c1
6 | > 30 µM (inactive) |  | COc1cccc(OC)c1-c1nn2c(-c3cc(-c4ccccc4)n[nH]3)nnc2s1
7 | > 30 µM (inactive) |  | O=C1c2ccccc2-c2onc3ccc(NCc4ccco4)c1c23
8 | > 30 µM (inactive) |  | COc1cc(CNCCc2c[nH]c3ccccc23)ccc1OCc1ccccc1F
9 | 5.37 µM |  | COc1ccc2nc3cc(Cl)ccc3c(Nc3cc(C(C)C)c(O)cc3C)c2c1
10 | 14.7 µM |  | C#CCOCCOCCOCCNc1nc(N2CCN(C(=O)[C@H]([C@@H](C)CC)n3cc([C@@H](N)Cc4ccc(O)cc4)nn3)CC2)nc(N2CCN(C(=O)[C@H](CCCCN)n3cc([C@@H](N)CC(C)C)nn3)CC2)n1
11 | > 30 µM (inactive) |  | CC(=O)Nc1ccc(OCC(O)Cn2c3ccccc3c3ccccc32)cc1 (stereo not drawn)
12 | > 30 µM (inactive) |  | CCc1ccc(Nc2n[n+](-c3ccccc3)c(-c3ccc(OCc4ccccc4)cc3)s2)cc1
13 | 4.9 µM | 4.8 µM | CCN(CC)CCOC(=O)c1ccc(N/C=C(/C#N)c2nc(-c3cc4ccccc4oc3=O)cs2)cc1
14 | > 30 µM (inactive) |  | C=CC#CC[N+]1(CC#Cc2ccccc2)CCOCC1
15 | 12.8 µM |  | C#CCOCCOCCOCCNc1nc(N2CCN(C(=O)C(Cc3ccc(O)cc3)n3cc(C(N)CC(C)C)nn3)CC2)nc(N2CCN(C(=O)C(Cc3cc4ccccc4[nH]3)n3cc(C(N)Cc4ccc(O)cc4)nn3)CC2)n1 (stereo not drawn)
16 | 10.1 µM |  | C#CCOCCOCCOCCNc1nc(N2CCN(C(=O)[C@H]([C@@H](C)CC)n3cc([C@@H](N)Cc4ccc(O)cc4)nn3)CC2)nc(N2CCN(C(=O)[C@H](Cc3cc4ccccc4[nH]3)n3cc([C@@H](N)C(C)CC)nn3)CC2)n1 (stereo partly drawn)
17 | > 30 µM (inactive) |  | CNC[C@H](CC1CCCCC1)NC[C@H](Cc1ccccc1)NCCC12CC3CC(CC(C3)C1)C2
